Reference: patent US20230391768A2, “IMIDAZOPYRIDINE DERIVATIVES AND AZA-IMIDAZOPYRIDINE DERIVATIVES AS JANUS KINASE 2 INHIBITORS AND USES THEREOF” (Dana-Farber Cancer Institute, Inc., priority 2018, published 2023)

Tests used:
Assay in all cases: KINOMEscan
Type in all cases: binding
Settings in all cases: read-out: percent of control
AAKI = AAKI (Homo sapiens (Human), UniProt Q2M2I8)
Description: (§1) In vitro profiling of Compound I-2 (1 μM) was performed using the DiscoveRx KINOMEscan® platform.

[1] = molecular target: ABL1(H396P)-phosphorylated (Homo sapiens (Human), UniProt P00519, H396P)
Description: as §1

[2] = molecular target: ABL1(Q252H)-phosphorylated (Homo sapiens (Human), UniProt P00519, Q252H)
Description: as §1

[3] = molecular target: ABL1(Y253F)-phosphorylated (Homo sapiens (Human), UniProt P00519, Y253F)
Description: as §1

AURKA = AURKA (Homo sapiens (Human), UniProt O14965)
Description: as §1

CAMK1G = CAMK1G (Homo sapiens (Human), UniProt Q96NX5)
Description: as §1

CDK9 = CDK9 (Homo sapiens (Human), UniProt P50750)
Description: as §1

CTK = CTK (Homo sapiens (Human), UniProt P42679)
Description: as §1

DAPK1 = DAPK1 (Homo sapiens (Human), UniProt P53355)
Description: as §1

DYRKIA = DYRKIA (Homo sapiens (Human), UniProt Q13627)
Description: as §1

EGFR(G719S) = EGFR(G719S) (Homo sapiens (Human), UniProt P00533, G719S)
Description: as §1

EGFR(L858R) = EGFR(L858R) (Homo sapiens (Human), UniProt P00533, L858R)
Description: as §1

EPHA6 = EPHA6 (Homo sapiens (Human), UniProt Q9UF33)
Description: as §1

ERK1 = ERK1 (Homo sapiens (Human), UniProt P27361)
Description: as §1

FGFR2 = FGFR2 (Homo sapiens (Human), UniProt P21802)
Description: as §1

FLT3 (K663Q) = FLT3 (K663Q) (Homo sapiens (Human), UniProt P36888, K663Q)
Description: as §1

HASPIN = HASPIN (Homo sapiens (Human), UniProt Q8TF76)
Description: as §1

KIT(D816H) = KIT(D816H) (Homo sapiens (Human), UniProt P10721, D816H)
Description: as §1

MAP3K3 = MAP3K3 (Homo sapiens (Human), UniProt Q99759)
Description: as §1

MRCKB = MRCKB (Homo sapiens (Human), UniProt Q9Y5S2)
Description: as §1

MST2 = MST2 (Homo sapiens (Human), UniProt Q13188)
Description: as §1

MTOR = MTOR (Homo sapiens (Human), UniProt P42345)
Description: as §1

NIK = NIK (Homo sapiens (Human), UniProt Q99558)
Description: as §1

PAK3 = PAK3 (Homo sapiens (Human), UniProt O75914)
Description: as §1

PFCDPK1(P.falciparum) = PFCDPK1(P.falciparum) (Plasmodium falciparum (isolate 3D7), UniProt P62344)
Description: as §1

PFTAIRE2 = PFTAIRE2 (Homo sapiens (Human), UniProt Q96Q40)
Description: as §1

PKNB (M.tuberculosis) = PKNB (M.tuberculosis) (Mycobacterium tuberculosis (strain ATCC 25618 / H37Rv), UniProt P9WI81)
Description: as §1

PLK1 = PLK1 (Homo sapiens (Human), UniProt P53350)
Description: as §1

PLK2 = PLK2 (Homo sapiens (Human), UniProt Q9NYY3)
Description: as §1

PRKG1 = PRKG1 (Homo sapiens (Human), UniProt Q13976)
Description: as §1

RIOK2 = RIOK2 (Homo sapiens (Human), UniProt Q9BVS4)
Description: as §1

SRMS = SRMS (Homo sapiens (Human), UniProt Q9H3Y6)
Description: as §1

STK33 = STK33 (Homo sapiens (Human), UniProt Q9BYT3)
Description: as §1

TAOK1 = TAOK1 (Homo sapiens (Human), UniProt Q7L7X3)
Description: as §1

TEC = TEC (Homo sapiens (Human), UniProt P42680)
Description: as §1

TSSK3 = TSSK3 (Homo sapiens (Human), UniProt Q96PN8)
Description: as §1

ZAK = ZAK (Homo sapiens (Human), UniProt Q9NYL2)
Description: as §1

p38-beta = p38-beta (Homo sapiens (Human), UniProt Q15759)
Description: as §1

Sequence of HASPIN (Q8TF76 whole entry): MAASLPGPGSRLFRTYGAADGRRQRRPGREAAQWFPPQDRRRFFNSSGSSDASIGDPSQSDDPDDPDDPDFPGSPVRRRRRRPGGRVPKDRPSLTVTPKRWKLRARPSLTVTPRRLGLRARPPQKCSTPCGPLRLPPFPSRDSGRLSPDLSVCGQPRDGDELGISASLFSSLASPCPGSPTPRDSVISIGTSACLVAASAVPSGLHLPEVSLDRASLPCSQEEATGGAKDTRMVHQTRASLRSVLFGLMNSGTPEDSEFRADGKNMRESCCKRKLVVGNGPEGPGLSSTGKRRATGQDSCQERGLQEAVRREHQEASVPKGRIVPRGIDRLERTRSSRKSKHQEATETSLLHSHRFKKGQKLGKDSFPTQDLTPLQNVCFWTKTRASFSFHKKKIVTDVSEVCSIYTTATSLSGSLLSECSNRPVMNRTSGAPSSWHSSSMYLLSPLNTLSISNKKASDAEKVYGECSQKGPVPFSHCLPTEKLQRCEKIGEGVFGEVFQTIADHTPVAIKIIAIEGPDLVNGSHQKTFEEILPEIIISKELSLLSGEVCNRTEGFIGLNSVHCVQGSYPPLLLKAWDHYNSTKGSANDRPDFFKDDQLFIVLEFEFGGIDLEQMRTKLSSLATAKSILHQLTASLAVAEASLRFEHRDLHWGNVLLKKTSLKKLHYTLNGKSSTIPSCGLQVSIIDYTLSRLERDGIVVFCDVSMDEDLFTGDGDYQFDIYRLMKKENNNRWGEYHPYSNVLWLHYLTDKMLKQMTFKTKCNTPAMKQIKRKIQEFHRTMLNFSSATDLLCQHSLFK
Sequence of PLK2 (Q9NYY3 whole entry): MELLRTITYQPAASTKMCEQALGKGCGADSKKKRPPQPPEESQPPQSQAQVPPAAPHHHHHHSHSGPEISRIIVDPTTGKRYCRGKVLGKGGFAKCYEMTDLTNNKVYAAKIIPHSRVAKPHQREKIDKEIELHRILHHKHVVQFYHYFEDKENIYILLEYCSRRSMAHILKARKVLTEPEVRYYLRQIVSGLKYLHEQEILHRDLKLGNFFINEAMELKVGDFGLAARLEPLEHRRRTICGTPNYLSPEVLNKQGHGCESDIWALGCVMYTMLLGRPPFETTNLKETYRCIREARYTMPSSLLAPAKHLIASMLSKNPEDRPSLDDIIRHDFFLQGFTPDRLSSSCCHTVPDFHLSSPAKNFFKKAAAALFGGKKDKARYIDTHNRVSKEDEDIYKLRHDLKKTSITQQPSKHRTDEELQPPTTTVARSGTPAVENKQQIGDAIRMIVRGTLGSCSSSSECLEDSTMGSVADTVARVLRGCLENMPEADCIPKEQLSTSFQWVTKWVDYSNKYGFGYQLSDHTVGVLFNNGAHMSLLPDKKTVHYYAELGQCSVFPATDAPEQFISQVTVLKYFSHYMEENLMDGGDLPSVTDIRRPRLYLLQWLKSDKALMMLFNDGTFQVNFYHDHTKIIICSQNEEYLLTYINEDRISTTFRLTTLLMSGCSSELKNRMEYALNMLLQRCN
Sequence of TAOK1 (Q7L7X3 whole entry): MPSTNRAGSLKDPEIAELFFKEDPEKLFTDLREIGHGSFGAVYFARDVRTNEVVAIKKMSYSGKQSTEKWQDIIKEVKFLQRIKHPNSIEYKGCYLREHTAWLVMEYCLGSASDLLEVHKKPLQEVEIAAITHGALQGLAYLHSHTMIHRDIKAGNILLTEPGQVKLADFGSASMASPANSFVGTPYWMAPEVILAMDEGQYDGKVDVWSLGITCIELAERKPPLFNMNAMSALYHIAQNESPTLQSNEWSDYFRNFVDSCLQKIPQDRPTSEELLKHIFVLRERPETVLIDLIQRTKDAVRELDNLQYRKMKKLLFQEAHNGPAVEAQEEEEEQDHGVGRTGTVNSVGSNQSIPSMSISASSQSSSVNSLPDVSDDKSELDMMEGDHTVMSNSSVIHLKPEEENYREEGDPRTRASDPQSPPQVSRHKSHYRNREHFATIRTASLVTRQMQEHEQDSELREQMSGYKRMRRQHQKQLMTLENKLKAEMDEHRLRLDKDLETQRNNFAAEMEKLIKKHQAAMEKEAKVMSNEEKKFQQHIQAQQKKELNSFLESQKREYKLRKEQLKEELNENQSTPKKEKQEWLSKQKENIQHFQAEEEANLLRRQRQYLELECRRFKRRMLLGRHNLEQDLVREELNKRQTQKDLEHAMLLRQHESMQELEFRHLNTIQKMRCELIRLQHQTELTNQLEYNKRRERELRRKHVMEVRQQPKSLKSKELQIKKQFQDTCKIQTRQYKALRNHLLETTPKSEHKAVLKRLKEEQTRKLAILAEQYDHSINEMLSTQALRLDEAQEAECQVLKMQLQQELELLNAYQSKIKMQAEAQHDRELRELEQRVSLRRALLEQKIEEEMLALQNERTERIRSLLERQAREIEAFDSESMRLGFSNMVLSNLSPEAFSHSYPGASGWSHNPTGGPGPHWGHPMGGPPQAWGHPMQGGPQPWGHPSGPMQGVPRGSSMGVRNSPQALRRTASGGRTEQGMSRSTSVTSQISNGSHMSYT
Sequence of PAK3 (O75914 whole entry): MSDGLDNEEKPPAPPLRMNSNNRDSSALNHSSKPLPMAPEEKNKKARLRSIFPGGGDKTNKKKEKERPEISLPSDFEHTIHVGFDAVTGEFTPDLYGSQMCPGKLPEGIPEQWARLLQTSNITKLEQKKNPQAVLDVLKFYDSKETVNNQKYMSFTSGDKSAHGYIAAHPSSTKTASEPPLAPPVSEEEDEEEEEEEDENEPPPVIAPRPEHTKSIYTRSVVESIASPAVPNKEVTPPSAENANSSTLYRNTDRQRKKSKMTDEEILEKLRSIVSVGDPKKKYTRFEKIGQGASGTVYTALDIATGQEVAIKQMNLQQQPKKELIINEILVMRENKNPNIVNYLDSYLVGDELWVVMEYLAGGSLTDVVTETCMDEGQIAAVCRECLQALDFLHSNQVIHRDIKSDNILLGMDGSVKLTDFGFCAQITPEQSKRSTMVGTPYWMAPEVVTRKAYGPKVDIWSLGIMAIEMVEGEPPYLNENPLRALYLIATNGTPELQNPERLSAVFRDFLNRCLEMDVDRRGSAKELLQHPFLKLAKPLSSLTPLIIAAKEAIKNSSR
Sequence of ERK1 (P27361 whole entry): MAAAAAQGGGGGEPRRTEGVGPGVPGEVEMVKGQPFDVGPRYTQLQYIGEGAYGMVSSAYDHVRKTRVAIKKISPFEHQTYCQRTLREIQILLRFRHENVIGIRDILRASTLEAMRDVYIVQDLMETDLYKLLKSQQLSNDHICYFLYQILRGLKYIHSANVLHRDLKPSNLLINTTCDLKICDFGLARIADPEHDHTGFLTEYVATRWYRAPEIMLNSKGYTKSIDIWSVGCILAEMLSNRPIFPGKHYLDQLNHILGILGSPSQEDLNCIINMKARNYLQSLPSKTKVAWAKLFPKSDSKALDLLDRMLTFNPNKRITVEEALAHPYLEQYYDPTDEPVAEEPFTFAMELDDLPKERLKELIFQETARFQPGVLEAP
Sequence of PRKG1 (Q13976 whole entry): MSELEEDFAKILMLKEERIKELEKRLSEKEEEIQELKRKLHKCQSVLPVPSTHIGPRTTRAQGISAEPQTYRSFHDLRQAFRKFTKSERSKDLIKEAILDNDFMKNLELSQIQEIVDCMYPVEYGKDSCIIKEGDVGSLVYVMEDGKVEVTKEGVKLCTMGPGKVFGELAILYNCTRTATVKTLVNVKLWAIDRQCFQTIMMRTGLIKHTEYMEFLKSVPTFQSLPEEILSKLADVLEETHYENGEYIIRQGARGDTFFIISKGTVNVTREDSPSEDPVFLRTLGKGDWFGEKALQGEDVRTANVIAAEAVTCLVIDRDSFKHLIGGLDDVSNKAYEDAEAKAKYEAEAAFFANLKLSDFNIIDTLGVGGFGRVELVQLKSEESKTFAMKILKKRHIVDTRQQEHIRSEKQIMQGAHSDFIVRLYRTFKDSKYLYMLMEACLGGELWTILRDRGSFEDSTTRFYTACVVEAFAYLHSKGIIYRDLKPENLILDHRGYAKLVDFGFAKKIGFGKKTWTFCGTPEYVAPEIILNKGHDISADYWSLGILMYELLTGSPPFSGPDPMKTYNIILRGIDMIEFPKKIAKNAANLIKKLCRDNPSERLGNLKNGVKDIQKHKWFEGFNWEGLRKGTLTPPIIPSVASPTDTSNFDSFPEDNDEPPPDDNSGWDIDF
Sequence of FGFR2 (P21802 22-821): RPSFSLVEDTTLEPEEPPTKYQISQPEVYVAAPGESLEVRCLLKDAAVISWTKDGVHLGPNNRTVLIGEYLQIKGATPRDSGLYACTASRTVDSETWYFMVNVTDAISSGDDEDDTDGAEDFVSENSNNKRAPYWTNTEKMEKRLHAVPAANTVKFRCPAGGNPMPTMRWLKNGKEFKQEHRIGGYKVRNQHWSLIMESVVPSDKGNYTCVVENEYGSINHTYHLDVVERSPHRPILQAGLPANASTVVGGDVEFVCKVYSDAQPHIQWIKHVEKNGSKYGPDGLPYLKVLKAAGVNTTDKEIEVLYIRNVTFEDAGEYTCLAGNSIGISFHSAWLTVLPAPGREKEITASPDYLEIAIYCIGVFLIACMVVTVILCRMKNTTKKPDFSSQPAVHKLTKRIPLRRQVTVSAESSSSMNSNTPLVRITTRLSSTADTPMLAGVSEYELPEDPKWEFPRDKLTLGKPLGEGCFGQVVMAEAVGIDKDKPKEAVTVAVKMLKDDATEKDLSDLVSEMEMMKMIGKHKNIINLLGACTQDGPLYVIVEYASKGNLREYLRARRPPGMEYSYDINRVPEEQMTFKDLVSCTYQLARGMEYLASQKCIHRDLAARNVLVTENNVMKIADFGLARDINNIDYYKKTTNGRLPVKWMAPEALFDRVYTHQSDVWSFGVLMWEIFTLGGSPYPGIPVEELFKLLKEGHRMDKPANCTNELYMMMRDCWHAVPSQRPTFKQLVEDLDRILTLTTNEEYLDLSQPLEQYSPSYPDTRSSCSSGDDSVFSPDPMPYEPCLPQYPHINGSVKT

CCN1CCN(Cc2cc(NC(=O)c3ccc(C)c(-c4ccc5nc(NC(=O)C6CC6)cn5n4)c3)cc(C(F)(F)F)c2)CC1 [Compound I-2, 3-(2-(cyclopropanecarboxamido)imidazo[1,2-b]pyridazin-6-yl)-N-(3-((4-ethylpiperazin-1-yl)methyl)-5-(trifluoromethyl)phenyl)-4-methylbenzamide] gave a remaining binding at 1 µM (AAKI) of 100%, a remaining binding at 1 µM [1] of 0.3% and a remaining binding at 1 µM [2] of 0.35%. The remaining binding at 1 µM [3] was 0%, the remaining binding at 1 µM (AURKA) was 64% and the remaining binding at 1 µM (CAMK1G) was 85%. It also gave a remaining binding at 1 µM (CDK9) of 14%, a remaining binding at 1 µM (CTK) of 38% and a remaining binding at 1 µM (DAPK1) of 100%. It also gave a remaining binding at 1 µM (DYRKIA) of 92%, a remaining binding at 1 µM (EGFR(G719S)) of 45% and a remaining binding at 1 µM (EGFR(L858R)) of 76%. For the same compound, the remaining binding at 1 µM (EPHA6) was 5.2%, the remaining binding at 1 µM (ERK1) was 95% and the remaining binding at 1 µM (FGFR2) was 67%. For the same compound, the remaining binding at 1 µM (FLT3 (K663Q)) was 5.6%, the remaining binding at 1 µM (HASPIN) was 87% and the remaining binding at 1 µM (KIT(D816H)) was 38%. It also gave a remaining binding at 1 µM (MAP3K3) of 48%, a remaining binding at 1 µM (MRCKB) of 100% and a remaining binding at 1 µM (MST2) of 50%. It also gave a remaining binding at 1 µM (MTOR) of 78%, a remaining binding at 1 µM (NIK) of 100% and a remaining binding at 1 µM (PAK3) of 82%. It also gave a remaining binding at 1 µM (PFCDPK1(P.falciparum)) of 84%, a remaining binding at 1 µM (PFTAIRE2) of 0.9% and a remaining binding at 1 µM (PKNB (M.tuberculosis)) of 78%. It also gave a remaining binding at 1 µM (PLK1) of 98%, a remaining binding at 1 µM (PLK2) of 90% and a remaining binding at 1 µM (PRKG1) of 100%. The remaining binding at 1 µM (RIOK2) was 100%, the remaining binding at 1 µM (SRMS) was 86% and the remaining binding at 1 µM (STK33) was 70%. It also gave a remaining binding at 1 µM (TAOK1) of 3.9%, a remaining binding at 1 µM (TEC) of 100% and a remaining binding at 1 µM (TSSK3) of 100%. It also gave a remaining binding at 1 µM (ZAK) of 2.3% and a remaining binding at 1 µM (p38-beta) of 60%.

In the case of CCN1CCN(Cc2cc(NC(=O)c3ccc(C)c(-c4ccc5nc(NC(=O)C6CC6)cn5c4)c3)cc(C(F)(F)F)c2)CC1 [Compound I-6, 3-(2-(cyclopropanecarboxamido)imidazo[1,2-a]pyridin-6-yl)-N-(3-((4-ethylpiperazin-1-yl)methyl)-5-(trifluoromethyl)phenyl)-4-methylbenzamide], the remaining binding at 1 µM (AAKI) is reported as 89%, the remaining binding at 1 µM [1] is reported as 0.25% and the remaining binding at 1 µM [2] is reported as 0.6%. For the same compound, the remaining binding at 1 µM [3] was 0.1%, the remaining binding at 1 µM (AURKA) was 94% and the remaining binding at 1 µM (CAMK1G) was 100%. For the same compound, the remaining binding at 1 µM (CDK9) was 13%, the remaining binding at 1 µM (CTK) was 31% and the remaining binding at 1 µM (DAPK1) was 100%. The remaining binding at 1 µM (DYRKIA) was 100%, the remaining binding at 1 µM (EGFR(G719S)) was 35% and the remaining binding at 1 µM (EGFR(L858R)) was 71%. The remaining binding at 1 µM (EPHA6) was 0.75%, the remaining binding at 1 µM (ERK1) was 100% and the remaining binding at 1 µM (FGFR2) was 57%. It also gave a remaining binding at 1 µM (FLT3 (K663Q)) of 4.2%, a remaining binding at 1 µM (HASPIN) of 64% and a remaining binding at 1 µM (KIT(D816H)) of 29%. For the same compound, the remaining binding at 1 µM (MAP3K3) was 56%, the remaining binding at 1 µM (MRCKB) was 100% and the remaining binding at 1 µM (MST2) was 97%. The remaining binding at 1 µM (MTOR) was 91%, the remaining binding at 1 µM (NIK) was 72% and the remaining binding at 1 µM (PAK3) was 66%. It also gave a remaining binding at 1 µM (PFCDPK1(P.falciparum)) of 88%, a remaining binding at 1 µM (PFTAIRE2) of 3.6% and a remaining binding at 1 µM (PKNB (M.tuberculosis)) of 91%. The remaining binding at 1 µM (PLK1) was 100%, the remaining binding at 1 µM (PLK2) was 96% and the remaining binding at 1 µM (PRKG1) was 87%. The remaining binding at 1 µM (RIOK2) was 94%, the remaining binding at 1 µM (SRMS) was 79% and the remaining binding at 1 µM (STK33) was 100%. The remaining binding at 1 µM (TAOK1) was 4.5%, the remaining binding at 1 µM (TEC) was 100% and the remaining binding at 1 µM (TSSK3) was 91%. The remaining binding at 1 µM (ZAK) was 6.2% and the remaining binding at 1 µM (p38-beta) was 62%.
